The subject of assay [1] is NO. In words: Ex vivo EPR measurement of [(MGD)2/Fe-NO] levels in the urine of LPS-treated mice. The following applies: for [(MGD)2/Fe-NO] present in LPS-treated mouse urine: urine 2 h later. The protocol:
After 2 h, the mouse was sacrificed and the urine sample was collected from the urinary bladder, and immediately transferred to a quartz flat cell for X-band EPR measurement as described above in Example 2B. Inhibition experiments with NMMA or dexamethasone were performed as described above in Example 2A, except that the mice were treated with LPS prior to following the protocols for NO inhibition experiments. The procedures for S-band EPR measurement of wet tissues and blood samples were as described previously (Lai and Komarov, supra).
Thus, at 6 h after LPS treatment, mice were injected with the [(MGD)2/Fe] complex, with and without i.p. injection of NMMA (50 mg/kg). The mice were sacrificed at 2 h after injection of the [(MGD)2/Fe] complex. The urine samples were collected and the EPR measurement was carried out at 22° C.

In assay [2] the test system is NO. Kind of assay: Ex vivo EPR measurement of [(MGD)2/Fe-NO] levels in the urine of normal mice.
Procedure: Normal mice housed in a restraining tube were injected subcutaneously with 0.4 ml of the [(MGD)2/Fe] complex (326 mg/Kg of MGD and 34 mg/Kg of FeSO4). After 2 hours, the animals were sacrificed and the urine samples were collected from the urinary bladder. The urine sample, which was dark brown (characteristic of the presence of [(MGD)2/Fe] complex), was transferred to a quartz flat cell for EPR measurement. The spectra were recorded at 22° C. with an X-band EPR spectrometer, operating at 9.5 GHz. Instrument settings include 100-G field scan, 4-min scan time, 0.5-s time constant, 2.5-G modulation amplitude, 100-KHz modulation frequency and 100-mW microwave power. The concentrations of the [(MGD)2/Fe—NO] complex in the urine samples were calculated by comparing the signal intensities obtained from the samples to the signal intensity of a standard solution containing 0.1 mM of the [(MGD)2/Fe—NO] complex.
For inhibition experiments, mice were injected intraperitoneally with 50 mg/kg NMMA in saline immediately after the injection of the [(MGD)2/Fe] complex. In other experiments, mice were injected intravenously with 3 mg/kg dexamethasone in saline about 1.5 h before the injection of the [(MGD)2/Fe] complex. […] Acetylcholine chloride (Sigma) in saline was freshly prepared prior to subcutaneous injection at a dose of 67 mg/kg.
At 2 h after subcutaneous injection of an aliquot (0.4 ml) of the [(MGD)2/Fe] complex (326 mg/Kg of MGD and 34 mg/Kg of FeSO4) into normal mice (A) (and also in the presence of NMMA (50 mg/kg) (B), or of dexamethasone (3 mg/kg) (C)), the animals were sacrificed and the urine samples collected and transferred to a quartz flat cell for X-band (9.5 GHz) EPR measurement at 22° C.

“Also recorded” adds a separate entry of the source.

Results on two molecules are retold here after patent US6469057B1, “Methods for in vivo reduction of free radical levels and compositions useful therefor” (MCW Research Foundation, Inc., priority 1995, dated 2002).

As to `CNC(=N)NCCC[C@H](N)C(=O)O` [NMMA, N^G-monomethyl-L-arginine], the “effect on signal intensity of [(MGD)2/Fe-NO] in the urine of LPS-treated mice” value in assay [1] (NMMA 50 mg/kg i.p. at 6 h after LPS) is reported as “markedly reduces the signal intensity; also recorded: markedly reducing the signal intensity”. Besides, the figures for the “[(MGD)2/Fe-NO] present in LPS-treated mouse urine” value in assay [1] (NMMA 50 mg/kg i.p. at 6 h after LPS just prior to [(MGD)2/Fe]) and in assay [1] (NMMA 100 mg/kg i.p. at 6 h after LPS just prior to [(MGD)2/Fe]) were 3.6 ± 0.9 (4) and 7.3 ± 2.2 (3), respectively. The “effect on the [(MGD)2/Fe-NO] EPR signal in urine” value in assay [2] (normal mice, NMMA 50 mg/kg i.p., dexamethasone 3 mg/kg i.v. pretreatment) was “markedly reduced”.

Regarding `CC(=O)OCC[N+](C)(C)C.[Cl-]` [Acetylcholine, acetylcholine chloride], the “[(MGD)2/Fe-NO] present in mouse urine” value in assay [2] (mouse, in vivo) is 3.9 ± 0.8 (3) μM. For the same molecule, the “increase in urinary [(MGD)2/Fe-NO] levels” value in assay [2] (normal mice, acetylcholine 67 mg/kg s.c.) worked out at 3 fold.
